Laboratory results published in US20240174647A1 (NEURON23, INC., priority 2022, published 2024).

Target: wt human LRRK2, catalytic site (Homo sapiens (Human), UniProt Q5S007)
Experiment: TR-FRET LanthaScreen Tb Kinase Activity Assay (LRRK2 kinase inhibition)
Format: biochemical
Settings: 2 nM wt human LRRK2, 400 nM fluorescein-ERM (LRRKtide) peptide, 38 μM ATP, 120 minutes at room temperature
Description: The compounds in Table 1 were tested for their inhibitory effect on LRRK2 kinase according to the following procedures.
The protocol for basic TR-FRET LanthaScreen Tb Kinase Activity Assay inhibitor studies were as follows. LanthaScreen Kinase Activity Assays (ThermoFisher/USA) to evaluate inhibitors were performed by addition of 100 nL of test compound in corresponding DMSO dilutions/5 μL of kinase/fluorescein-ERM(LRRKtide) peptide mixture, 5 μL of ATP into 384 well small volume plates. After incubation for 120 minutes at room temperature, the detection reagents containing Tb-anti-pLRRKtide antibody were added to monitor phosphrylation level of peptide. Then, after 60 min minutes incubation at room temperature plates were read in Envision. Data analysis of emission ratios was according to LanthaScreen Tb Kinase Activity Assay protocol.
Kinase and assay components were adjusted to final concentrations according to the kit protocol. For LRRK2: 2 nM wt human LRRK2, catalytic site, catalytic site (ThermoFisher/USA), 400 nM peptide, 38 μM ATP in 1× Kinase Buffer A.
Basic protocol for TR-FRET LanthaScreen Tb Kinase Activity Assay inhibitor studies involved two steps: • Enzymatic step: Addition of 100 nL of test compound in corresponding DMSO dilutions, 5 μL of kinase/substrate mixture, 5 μL of ATP into 384 well small volume plates. Incubation for 120 minutes at room temperature. • Detection step: Addition of 10 μL EDTA & antibody, read plate after 60 minutes. Data analysis of emission ratios according to KinEASE assay protocol.
Kinase and assay components were adjusted to final concentrations according to the kit protocol.
In the table below, activity is provided as follows: +++=IC50 less than 50 nM; ++=IC50 between 50 nM and 200 nM; +=IC50>=200 nM

Chain of wt human LRRK2, catalytic site (Q5S007 1879-2138): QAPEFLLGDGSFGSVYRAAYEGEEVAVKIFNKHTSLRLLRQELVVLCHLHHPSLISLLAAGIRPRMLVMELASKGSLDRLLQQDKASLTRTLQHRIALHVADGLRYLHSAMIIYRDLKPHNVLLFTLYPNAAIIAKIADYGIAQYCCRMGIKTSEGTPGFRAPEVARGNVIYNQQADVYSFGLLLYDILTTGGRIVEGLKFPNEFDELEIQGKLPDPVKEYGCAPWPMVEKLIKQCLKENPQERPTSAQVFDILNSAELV

With `COCCn1ncc2c(Nc3ncc(C(F)(F)F)c(NC4CC4)n3)cccc21` [Example 133, N^4-cyclopropyl-N^2-[1-(2-methoxyethyl)indazol-4-yl]-5-(trifluoromethyl) pyrimidine-2,4-diamine] the IC50 was under 50 nM.

`COCCn1ncc2c(Nc3ncc(C(F)(F)F)c(NC(C)C)n3)cccc21` [Example 140, N^4-isopropyl-N^2-[1-(2-methoxyethyl)indazol-4-yl]-5-(trifluoromethyl)pyrimidine-2,4-diamine] gave an IC50 of under 50 nM.

For `CNc1nc(Nc2cccc3c2cnn3CC#N)ncc1C(F)(F)F` [Example 30, 2-(4-((4-(methylamino)-5-(trifluoromethyl)pyrimidin-2-yl)amino)-1H-indazol-1-yl)acetonitrile], the IC50 was under 50 nM.

With `CCNc1nc(Nc2cccc3c2cnn3C(C)(C)C#N)nc2[nH]cc(Cl)c12` [Example 156, 2-(4-((5-chloro-4-(ethylamino)-7H-pyrrolo[2,3-d]pyrimidin-2-yl)amino)-1H-indazol-1-yl)-2-methylpropanenitrile] the IC50 was under 50 nM.

`CNc1nc(Nc2cc(/C=C/C(=O)N3CCOCC3)cc3c2cnn3C)ncc1C(F)(F)F` [Example 46, (E)-3-(1-methyl-4-((4-(methylamino)-5-(trifluoromethyl)pyrimidin-2-yl)amino)-1H-indazol-6-yl)-1-morpholinoprop-2-en-1-one] gave an IC50 of under 50 nM.

Compound `CNc1nc(Nc2cccc3c2cnn3CCC(=O)N2CCOCC2)ncc1C(F)(F)F` [Example 77, 3-(4-((4-(methylamino)-5-(trifluoromethyl)pyrimidin-2-yl)amino)-1H-indazol-1-yl)-1-morpholinopropan-1-one] has an IC50 of under 50 nM.

In the case of `CNc1nc(Nc2ccc(/C(C)=C/C(=O)N3CCOCC3)c3c2cnn3C)ncc1C(F)(F)F` [Example 59, (E)-3-(1-methyl-4-((4-(methylamino)-5-(trifluoromethyl)pyrimidin-2-yl)amino)-1H-indazol-7-yl)-1-morpholinobut-2-en-1-one], the IC50 is reported as under 50 nM.

With `CCS(=O)(=O)CCn1ncc2c(Nc3ncc(C(F)(F)F)c(NC4CC4)n3)cccc21` [Example 171, N^4-cyclopropyl-N^2-(1-(2-(ethylsulfonyl)ethyl)-1H-indazol-4-yl)-5-(trifluoromethyl)pyrimidine-2,4-diamine] the IC50 was under 50 nM.

In the case of `CCNc1nc(Nc2ccc(F)c3c2cnn3CC(C)(C)O)nc2[nH]nc(C)c12` [Example 205, 1-[4-[[4-(ethylamino)-3-methyl-1H-pyrazolo[3,4-d]pyrimidin-6-yl]amino]-7-fluoro-indazol-1-yl]-2-methyl-propan-2-ol], the IC50 is reported as under 50 nM.

`CC(C)(O)Cn1ncc2c(Nc3ncc(C(F)(F)F)c(NC4CC4)n3)ccc(F)c21` [Example 172, 1-(4-((4-(cyclopropylamino)-5-(trifluoromethyl)pyrimidin-2-yl)amino)-7-fluoro-1H-indazol-1-yl)-2-methylpropan-2-ol] showed an IC50 of under 50 nM.

`CCNc1nc(Nc2cccc3c2cnn3S(C)(=O)=O)ncc1Cl` [Example 152, 5-chloro-N4-ethyl-N^2-(1-(methylsulfonyl)-1H-indazol-4-yl)pyrimidine-2,4-diamine] showed an IC50 of under 50 nM.

For `Cc1n[nH]c2nc(Nc3cccc4c3cnn4CC(C)(C)O)nc(NC3CC3)c12` [Example 204, 1-[4-[[4-(cyclopropylamino)-3-methyl-1H-pyrazolo[3,4-d]pyrimidin-6-yl]amino]indazol-1-yl]-2-methyl-propan-2-ol], the IC50 was under 50 nM.

For `CNc1nc(Nc2c(F)ccc3c2cnn3C)ncc1C(F)(F)F` [Example 38, N2-(5-fluoro-1-methyl-1H-indazol-4-yl)-N4-methyl-5-(trifluoromethyl) pyrimidine-2,4-diamine], the IC50 was 50 to 200 nM.

For `CNc1nc(Nc2cc(C(F)(F)F)cc3c2cnn3CC#N)ncc1C(F)(F)F` [Example 90, 2-(4-((4-(methylamino)-5-(trifluoromethyl)pyrimidin-2-yl)amino)-6-(trifluoromethyl)-1H-indazol-1-yl)acetonitrile], the IC50 was under 50 nM.

`O=S(=O)(C1CC1)n1ncc2c(Nc3ncc(C(F)(F)F)c(C4CC4)n3)cccc21` [Example 132, N-(4-cyclopropyl-5-(trifluoromethyl)pyrimidin-2-yl)-1-(cyclopropylsulfonyl)-1H-indazol-4-amine] was tested, and the IC50 was 50 to 200 nM.

`CNc1nc(Nc2cccc3c2cnn3CC(F)F)ncc1C(F)(F)F` [Example 94, N2-(1-(2,2-difluoroethyl)-1H-indazol-4-yl)-N4-methyl-5-(trifluoromethyl)pyrimidine-2,4-diamine] showed an IC50 of under 50 nM.

In the case of `CNc1nc(Nc2c(OC)ccc3nn(C)cc23)ncc1C(F)(F)F` [Example 40, N2-(5-methoxy-2-methyl-2H-indazol-4-yl)-N-methyl-5-(trifluoromethyl) pyrimidine-2,4-diamine], the IC50 is reported as at least 200 nM.

`CS(=O)(=O)CCNc1nc(Nc2cccc3c2cnn3S(=O)(=O)C2CC2)ncc1C(F)(F)F` [Example 138, N^2-(1-(cyclopropylsulfonyl)-1H-indazol-4-yl)-N^4-(2-(methylsulfonyl)ethyl)-5-(trifluoromethyl)pyrimidine-2,4-diamine] was tested, and the IC50 was under 50 nM.

Compound `CCNc1nc(Nc2cccc3c2cnn3CCS(C)(=O)=O)ncc1C(F)(F)F` [Example 186, N^4-ethyl-N^2-[1-(2-methylsulfonylethyl)indazol-4-yl]-5-(trifluoromethyl) pyrimidine-2,4-diamine] has an IC50 of under 50 nM.

`CS(=O)(=O)n1ncc2c(Nc3ncc(C(F)(F)F)c(NC4CCC4)n3)cccc21` [Example 150, N^4-cyclobutyl-N^2-(1-methylsulfonylindazol-4-yl)-5-(trifluoromethyl)pyrimidine-2,4-diamine] showed an IC50 of under 50 nM.

`CNc1nc(Nc2cccc3c2cnn3CC(C)(C)O)ncc1C(F)(F)F` [Example 97, 2-methyl-1-(4-((4-(methylamino)-5-(trifluoromethyl)pyrimidin-2-yl)amino)-1H-indazol-1-yl)propan-2-ol] showed an IC50 of under 50 nM.

`CNc1nc(Nc2cnn3cc(C#N)ccc23)ncc1C(F)(F)F` [Example 119, 3-((4-(methylamino)-5-(trifluoromethyl)pyrimidin-2-yl)amino)pyrazolo[1,5-a]pyridine-6-carbonitrile] was tested, and the IC50 was under 50 nM.

`FC(F)(F)c1cnc(Nc2ccc3c4c2cnn4CCCO3)nc1NC1CC1` [Example 160, N^4-cyclopropyl-N^2-(9-oxa-1,2-diazatricyclo[6.4.1.04,13]trideca-2,4,6,8(13)-tetraen-5-yl)-5-(trifluoromethyl)pyrimidine-2,4-diamine] showed an IC50 of under 50 nM.

`CNc1nc(Nc2cccc3c2cnn3C(=O)N2CCOCC2)ncc1C(F)(F)F` [Example 32, (4-((4-(methylamino)-5-(trifluoromethyl)pyrimidin-2-yl)amino)-1H-indazol-1-yl)(morpholino)methanone] showed an IC50 of under 50 nM.

`CNc1nc(Nc2ccc(C3=CCN(C)CC3)c3c2cnn3CC#N)ncc1C(F)(F)F` [Example 87, 2-(7-(1-methyl-1,2,3,6-tetrahydropyridin-4-yl)-4-((4-(methylamino)-5-(trifluoromethyl)pyrimidin-2-yl)amino)-11H-indazol-1-yl)acetonitrile] showed an IC50 of under 50 nM.

With `N#CCn1ncc2c(Nc3ncc(C(F)(F)F)c(NC4CC4)n3)cccc21` [Example 93] the IC50 was under 50 nM.

Compound `CCOc1nc(Nc2cccc3c2cnn3CC(F)F)nc2[nH]cc(Cl)c12` [Example 165, 5-chloro-N-[1-(2,2-difluoroethyl)indazol-4-yl]-4-ethoxy-7H-pyrrolo[2,3-d]pyrimidin-2-amine] has an IC50 of under 50 nM.

Work on `CNc1nc(Nc2ccc3cnn(C)c3c2C)ncc1C(F)(F)F` [Example 15, N2-(1,7-dimethyl-1H-indazol-6-yl)-N4-methyl-S-(trifluoromethyl)pyrimidine-2,4-diamine] yielded an IC50 of 50 to 200 nM.

Compound `CCc1cc2cn[nH]c2cc1Nc1ncc(C(F)(F)F)c(NC)n1` [Example 122, N2-(5-ethyl-1H-indazol-6-yl)-N4-methyl-5-(trifluoromethyl)pyrimidine-2,4-diamine] has an IC50 of 50 to 200 nM.

Work on `O=S(=O)(C1CC1)n1ncc2c(Nc3ncc(C(F)(F)F)c(NC4CC4)n3)cccc21` [Example 78, N4-cyclopropyl-N2-(1-(cyclopropylsulfonyl)-1H-indazol-4-yl)-5-(trifluoromethyl)pyrimidine-2,4-diamine] yielded an IC50 of under 50 nM.

`CNc1nc(Nc2ccc(C3CCN(C)CC3)c3c2cnn3CC#N)ncc1C(F)(F)F` [Example 109, 2-(4-((4-(methylamino)-5-(trifluoromethyl)pyrimidin-2-yl)amino)-7-(1-methylpiperidin-4-yl)-1H-indazol-1-yl)acetonitrile] gave an IC50 of under 50 nM.

With `CNc1nc(Nc2ccc(OC(F)(F)F)c3c2cnn3CC#N)ncc1C(F)(F)F` [Example 84, 2-(4-((4-(methylamino)-5-(trifluoromethyl)pyrimidin-2-yl)amino)-7-(trifluoromethoxy)-1H-indazol-1-yl)acetonitrile] the IC50 was under 50 nM.

Work on `CCNc1nc(Nc2cccc3c2cnn3C(C)(C)C#N)ncc1C(F)(F)F` [Example 154, 2-(4-((4-(ethylamino)-5-(trifluoromethyl)pyrimidin-2-yl)amino)-1H-indazol-1-yl)-2-methylpropanenitrile] yielded an IC50 of under 50 nM.
